From patent US8759318B2, “Phosphoramidate derivatives of guanosine nucleoside compounds for treatment of viral infections” (Inhibitex, Inc., priority 2009, dated 2014)
Where two headings read alike, the source gives them in different places.

Key:
[1] = Mouse PK: 2'-C-methylguanosine triphosphate levels in liver; details: 2'-C-methylguanosine triphosphate in mouse liver, 50 mg/kg PO
[2] = Cytotoxicity assay (CellTiter-Glo); details: human, Huh7 HCV replicon cells (genotype 1b)
[3] = test system: HCV replicon (Genotype 1b); assay: Luciferase genotype 1b replicon potency assay; details: Hepatitis C virus, GETYPE1B, read-out: IC50 μM, HCV genotype 1b luciferase replicon, Renilla luciferase reporter
[4] = Protide stability in normal plasma, rat; format: in vitro ADME; details: 37° C.
Experimental: (§1) Selected nucleoside 5′-phosphoramidates were examined for stability in human, cynomolgous monkey, rat and mouse plasma at 37° C. at both 30 min and 90 min time points.
(§2) Protide Stability in Normal Plasma: Plasma samples were prepared for analysis as follows. 50 μl of each test sample were distributed a 96-well V-bottom plate. 200 μl of acetonitrile containing 10 ng/ml of an internal standard was added to each plasma sample. The precipitated samples were centrifuged at 2500 rpm, 4° C. for 20 minutes in a Sorvall RT6000S centrifuge (Thermo Scientific, Waltham Mass.) and 100 μl of supernatant from each sample was transferred into a 96 deep well plate followed by the addition of 100 μl H2O to each sample. Samples were covered, mixed well by vortexing and maintained at 2-8° C. before and during analysis. 15 μl of each test sample was analyzed for protide concentrations by liquid chromatography coupled to tandem mass spectrometry (LC-MS/MS). Liquid chromatography was performed with an Agilent 1100 Series HPLC system equipped with a Synergi 4 μm Polar-RP, 30×2.0 mm column (Phenomenex, Torrance, Calif.). The HPLC system was coupled to an API 4000 triple quadrupole mass spectrometer (Applied Biosystems, Framingham, Mass.). Mass spectrometry was performed in positive ion mode and data was analyzed using Analyst® v1.4.2 software (Applied Biosystems, Framingham, Mass.). Data was presented as the percentage of compound recovered as compared to the 0 time point control.

[5] = Protide stability in normal plasma, mouse; format: in vitro ADME; details: 37° C.
Experimental: as §1, §2

[6] = Protide stability in normal plasma, cynomolgous monkey; format: in vitro ADME; details: 37° C.
Experimental: as §1, §2

[7] = Protide stability in normal plasma, human; format: in vitro ADME; details: 37° C.
Experimental: as §1, §2

[8] = in vitro; details: human
[9] = mouse, in vivo, po, 50 mg/kg; for Cmax / T1/2 / Tmax: female, ICR

| Structure (SMILES) | CC50 at 72 h [2] | IC50 [3] | % Compound Remaining Compared to %100 Acetonitrile Control ([4]; 30 min) | % Compound Remaining Compared to %100 Acetonitrile Control ([4]; 1.5 h) | % Compound Remaining Compared to %100 Acetonitrile Control ([5]; 30 min) | % Compound Remaining Compared to %100 Acetonitrile Control ([5]; 1.5 h) | % Compound Remaining Compared to %100 Acetonitrile Control ([6]; 30 min) | % Compound Remaining Compared to %100 Acetonitrile Control ([6]; 1.5 h) | % Compound Remaining Compared to %100 Acetonitrile Control ([7]; 30 min) | % Compound Remaining Compared to %100 Acetonitrile Control ([7]; 1.5 h) | CC50 [8] | also measured |
| --- | --- | --- | --- | --- | --- | --- | --- | --- | --- | --- | --- | --- |
| C[C@H](NP(=O)(OC[C@H]1OC(n2cnc3c(=O)[nH]c(N)nc32)[C@](C)(O)[C@@H]1O)Oc1cccc2ccccc12)C(=O)O[C@@H](C)c1ccccc1 (stereo partly drawn) [G, reference compound] |  |  |  |  |  |  |  |  |  |  |  | AUC0-6 [1]: 6977 ng·h/g |
| COc1nc(NCc2ccc(F)cc2)nc2c1ncn2[C@@H]1O[C@H](CO)[C@@H](O)[C@@]1(C)O [Example 92, (2R,3R,4R,5R)-2-(2-(4-fluorobenzylamino)-6-methoxy-9H-purin-9-yl)-5-(hydroxymethyl)-3-methyltetrahydrofuran-3,4-diol] | > 100 µM | > 40 µM |  |  |  |  |  |  |  |  |  |  |
| C[C@H](NP(=O)(OC[C@H]1OC(n2cnc3c(=O)[nH]c(N)nc32)[C@](C)(O)[C@@H]1O)Oc1cccc2ccccc12)C(=O)OCC(C)(C)C (stereo partly drawn) [A, reference compound] |  |  | 0% | 0% | 0% | 0% | 98.5% | 102.4% | 83.2% | 80.8% |  | AUC0-6 [1]: 1584 ng·h/g |
| CSc1nc(N)nc2c1ncn2[C@@H]1O[C@H](CO)[C@@H](O)[C@@]1(C)O [Example 88, (2R,3R,4R,5R)-2-(2-amino-6-(methylthio)-9H-purin-9-yl)-5-(hydroxymethyl)-3-methyltetrahydrofuran-3,4-diol] | 150 µM | 11 µM |  |  |  |  |  |  |  |  |  |  |
| COc1nc(N)nc2c1ncn2C1O[C@H](COP(=O)(N[C@H](C(=O)OCC(C)(C)C)C(C)C)Oc2c(C)ccc3ccccc23)[C@@H](O)[C@@]1(C)O (stereo partly drawn) [Example 54] |  | 1.5 µM | 60.6% | 58.4% | 60.7% | 45.7% | 119.3% | 124.2% | 80.4% | 93.5% | 23 µM |  |
| C[C@@]1(O)[C@H](O)[C@@H](CO)O[C@H]1n1cnc2c(NCc3ccccc3)nc(N)nc21 [Example 84, (3R,4R,5R)-2-(2-amino-6-(benzylamino)-9H-purin-9-yl)-5-(hydroxymethyl)-3-methyltetrahydrofuran-3,4-diol] | > 100 µM | 27 µM |  |  |  |  |  |  |  |  |  |  |
| CC(C)[C@H](NP(=O)(OC[C@H]1OC(n2cnc3c(=O)[nH]c(N)nc32)[C@](C)(O)[C@@H]1O)Oc1cccc2ccccc12)C(=O)OCC(C)(C)C (stereo partly drawn) [B, reference compound] |  |  | 66.7% | 42.0% | 68.3% | 32.3% | 84.5% | 84.9% | 74.7% | 78.1% |  |  |
| COc1nc(N)nc2c1ncn2C1O[C@H](CO)C[C@@]1(C)O (stereo partly drawn) [Example 94, (3R,5S)-2-(2-amino-6-methoxy-9H-purin-9-yl)-5-(hydroxymethyl)-3-methyl-tetrahydrofuran-3-ol] | > 100 µM | > 100 µM |  |  |  |  |  |  |  |  |  |  |
| COc1nc(N)nc2c1ncn2C1O[C@H](COP(=O)(N[C@H](C(=O)OCc2ccccc2)C(C)C)Oc2cccc3ccccc23)[C@@H](O)[C@@]1(C)O (stereo partly drawn) [Example 36] |  | 0.09 µM | 16.9% | 1.4% | 0.4% | 0% | 93.7% | 96% | 70.3% | 74.1% | 34 µM | Cmax [9]: 1209.7 ng/g; T1/2 [9]: 2.0 h; Tmax [9]: 4.0 h; AUC0-6 [9]: 5055 ng·h/g; AUC0-24 [9]: 6356 ng·h/g |
| CCOc1nc(N)nc2c1ncn2C1O[C@H](CO)[C@@H](O)[C@@]1(C)O (stereo partly drawn) [Example 72, (3R,4R,5R)-2-(2-amino-6-ethoxy-9H-purin-9-yl)-5-(hydroxymethyl)-3-methyltetrahydrofuran-3,4-diol] | > 100 µM | 11 µM |  |  |  |  |  |  |  |  |  |  |
| CC(C)[C@H](NP(=O)(OC[C@H]1OC(n2cnc3c(=O)[nH]c(N)nc32)[C@](C)(O)[C@@H]1O)Oc1cccc2ccccc12)C(=O)OCc1ccccc1 (stereo partly drawn) [M, reference compound] |  |  |  |  |  |  |  |  |  |  |  | AUC0-6 [1]: 1937 ng·h/g |
| COc1nc(N)nc2c1ncn2C1O[C@H](COP(=O)(N[C@H](C(=O)OC2CCOCC2)C(C)C)Oc2cccc3ccccc23)[C@@H](O)[C@@]1(C)O (stereo partly drawn) [Example 47, (2S)-tetrahydro-2H-pyran-4-yl 2-((((2R,3R,4R)-5-(2-amino-6-methoxy-9H-purin-9-yl)-3,4-dihydroxy-4-methyltetrahydrofuran-2-yl)methoxy)(naphthalen-1-yloxy)phosphorylamino)-3-methylbutanoate] |  | 0.18 µM | 71.3% | 57.3% | 74.3% | 67.4% | 112.5% | 118.5% | 105.1% | 129.5% | > 100 µM |  |
| COc1nc(N)nc2c1ncn2C1O[C@H](COP(=O)(N[C@@H](C)C(=O)OCc2ccccc2)Oc2cccc3ccccc23)[C@@H](O)[C@@]1(C)O (stereo partly drawn) [Example 13] |  | 0.026 µM |  |  | <3.9% |  | 89.1% | 77.0% | 97.2% | 85.4% | 14 µM |  |
| CNc1nc(N)nc2c1ncn2C1O[C@H](CO)[C@@H](O)[C@@]1(C)O (stereo partly drawn) [Example 80, (3R,4R,5R)-2-(2-amino-6-(methylamino)-9H-purin-9-yl)-5-(hydroxymethyl)-3-methyltetrahydrofuran-3,4-diol] | > 100 µM | 13 µM |  |  |  |  |  |  |  |  |  |  |
| COc1nc(N)nc2c1ncn2C1O[C@H](COP(=O)(N[C@H](C(=O)O[C@@H](C)c2ccccc2)C(C)C)Oc2cccc3ccccc23)[C@@H](O)[C@@]1(C)O (stereo partly drawn) [Example 38, (2S)-((S)-1-phenylethyl) 2-((((2R,3R,4R)-5-(2-amino-6-methoxy-9H-purin-9-yl)-3,4-dihydroxy-4-methyltetrahydrofuran-2-yl)methoxy) (naphthalen-1-yloxy)phosphorylamino)-3-methylbutanoate] |  | 0.94 µM |  |  |  |  |  |  |  |  | 29 µM | Cmax [9]: 3130.0 ng/g; T1/2 [9]: 4.3 h; Tmax [9]: 4.0 h; AUC0-6 [9]: 14380 ng·h/g; AUC0-24 [9]: 26837 ng·h/g |
| COc1nc(N)nc2c1ncn2C1O[C@H](COP(=O)(N[C@H](C(=O)OCC(C)(C)C)C(C)C)Oc2cccc3ccccc23)[C@@H](O)[C@@]1(C)O (stereo partly drawn) [Example 42, (2S)-neopentyl 2-((((2R,3R,4R)-5-(2-amino-6-methoxy-9H-purin-9-yl)-3,4-dihydroxy-4-methyltetrahydrofuran-2-yl)methoxy)(naphthalen-1-yloxy)phosphorylamino)-3-methylbutanoate] |  | 0.21 µM | 50.0% | 37.0% | 66.5% | 45.5% | 87.0% | 82.5% | 88.5% | 82.5% | 30 µM | AUC0-6 [1]: 1540 ng·h/g |
| COc1nc(N)nc2c1ncn2C1O[C@H](COP(=O)(N[C@H](C(=O)O[C@@H](C)c2ccc(Br)cc2)C(C)C)Oc2cccc3ccccc23)[C@@H](O)[C@@]1(C)O (stereo partly drawn) [Example 39, (2S)-((S)-1-(4-bromophenyl)ethyl) 2-((((2R,3R,4R)-5-(2-amino-6-methoxy-9H-purin-9-yl)-3,4-dihydroxy-4-methyltetrahydrofuran-2-yl)methoxy)(naphthalen-1-yloxy)phosphorylamino)-3-methylbutanoate] |  | 2.2 µM |  |  |  |  |  |  |  |  | 0.9 µM |  |
